Source: patent publication US20240158430A1, “NOVEL COMPOUND OR SALT THEREOF, AND ANTITUMOR ACTIVATOR CONTAINING SAME AS ACTIVE INGREDIENT” (AKITA UNIVERSITY, priority 2021, published 2024)
Values joined by “and” are separate entries in the source; they are usually repeats but may differ in a detail not shown here. Equal values may be shown once. Read-outs that look alike come from different tables or passages of the source.

Experiments:
fatty acid synthetase = assay: Influence on fatty acid synthetase, ELISA; assay type: cell-based, Human; conditions: 4 μM vs control group
Experimental: (§1) The influence of GO-Y199 on NF-kB (p65) was investigated. The method is as follows. 3×10^6 cells of the HCT116 cell line were added to a 10-cm plate, 2 μM of GO-Y199 was added after 24 hours, the cells were collected after 24 hours, embedded in iPGell (GenOStaff), and fixed in formalin, paraffin blocks were then prepared, and immuno-histochemistry was performed with an anti-NF-kB (p65) antibody. In addition, 2 μM and 5 μM of GO-Y199 were added, lysates were collected after 24 hours, and an expression level of NF-kB (p65) was analyzed using an ELISA-plate (NF-kBp65 (pS536) SimpleStep-ELISA-kit, Abcam). An amount of protein was corrected by the absorbance of A 280 nm. The upper part of FIG. 14 indicates photographs of the control group and the GO-Y199 (2 μM)-added group after 24 hours. The lower part of FIG. 14 indicates results of the t-test of these groups after 24 hours. FIG. 15 indicates the comparison results of the NF-kB inhibitory effect of GO-Y199 (2 μM, 5 μM)-added groups with respect to the control group.
The influence of GO-Y199 on fatty acid synthetase was investigated. The method is as described above. Protein quantification was performed using a Human Fatty acid synthase ELISA Kit (MyBioSource). FIG. 19 indicates the comparison result of the fatty acid synthetase inhibitory effect of the GO-Y199 (4 μM)-added group with respect to the control group.

[1] = test system: vascular endothelial cells HUVEC-R resistant to Ki8751; assay: Angiogenesis inhibitory activity, HUVEC-R; assay type: cell-based; conditions: Table 11; number of cells after 72 hours
Experimental: HUVEC-R was cultured in the presence of each compound using an EGMTM-2 Bullet Kit (Takara Bio Inc., Otsu, Japan), and the number of cells was measured after 72 hours. In addition, IC50 was determined from the results.

[2] = test system: pancreatic cancer cell line ASPC-1; assay: Cell growth inhibitory activity, ASPC-1; assay type: cell-based; conditions: Table 7
Experimental: [The source words this procedure for another cell line and reports this cell line under the same test.] (§2) The cell growth inhibitory activity against a colorectal cancer cell line HCT116 was measured. As an index of cell growth inhibitory activity, a concentration at which cell growth was inhibited by 50% as compared with a control (IC50) was used. The method is as follows. HCT116 was added to a 6-well plate by 5×10^4, compounds having various concentrations were added after 24 hours, and the number of cells was counted after 72 hours of culture. As the control, DMSO was used in an amount equal to the amount added in accordance with the addition concentration of the highest-concentration compound. The number of cells at each concentration relative to the control was expressed as a percentage.
(§3) The method is as described above.

HCT116 = assay: In vivo antitumor effect, HCT116 subcutaneous implant; conditions: nude mouse, HCT116 s.c.; 1 mg single tail vein injection; maximum diameter 4 days after; control 113.7±12.4%
Experimental: The in vivo antitumor effect of GO-Y199 was investigated. The method is as follows. HCT116 was implanted subcutaneously into a nude mouse. After tumor formation, 100 mM GO-Y199 in DMSO was dissolved in 100 μL of PBS and injected once into the tail vein of the mouse (corresponding to 1 mg of GO-Y199). As a control group, a DMSO-PBS solution having the equivalent concentration was injected once into the tail vein. The maximum diameter of the tumor was measured 4 days after the administration.

NF-kB (p65) = assay: Influence on NF-kB, immunohistochemistry in HCT116; assay type: cell-based; conditions: 2 μM, 24 hours, control 96.8±1.1%
Experimental: as §1

[3] = test system: gastric cancer cell line GCIY; assay: Cell growth inhibitory activity, GCIY; assay type: cell-based
Experimental: [The source words this procedure for another cell line and reports this cell line under the same test.] as §2, §3

[4] = test system: pancreatic cancer cell line Panc-1; assay: Cell growth inhibitory activity, Panc-1; assay type: cell-based; conditions: Table 7
Experimental: [The source words this procedure for another cell line and reports this cell line under the same test.] as §2, §3

Safety and toxicity test = assay type: in vivo, mouse
Experimental: In vivo safety and toxicity of GO-Y199 were investigated. The method is as follows. As described above, the equivalent of 1 mg of GO-Y199 was injected into the tail vein, blood was collected from the orbital vein 7 days later, and a hemoglobin value (Hb), the number of white blood cells (WBC), and the number of platelets (Plt) were measured with Cell tac MEK-5258 (available from Nihon Kohden Corporation). A creatinine value (Cre), a total bilirubin value (T-Bil), and an AST value were subjected to outsourcing (measured in Skylight Biotech Inc.). FIG. 29 indicates change in body weight of mice after intravenous injection. FIG. 30 indicates photographs of the tail of the mouse after intravenous injection.

β-catenin = assay: Influence on β-catenin, ELISA; assay type: cell-based; conditions: control 11.5±2.3
Experimental: as §1
The influence of GO-Y199 on β-catenin was investigated. The method is as described above. Immunohistochemistry was performed with an anti-β-catenin antibody. Protein quantification was performed using an ELISA plate (proteintech). FIG. 17 indicates photographs of the control group and the GO-Y199 (2 μM)-added group after 24 hours. […]

[5] = test system: colorectal cancer cell line DLD-1; assay: Cell growth inhibitory activity, DLD-1; assay type: cell-based
Experimental: as §2, §3
The cell growth inhibitory activity (IC50) of each of curcumin, GO-Y199, and GO-Y206 against the colorectal cancer cell lines DLD-1 and HCT116 and the gastric cancer cell lines KATO III and H-111-TC was measured. The method is as described above.

[6] = individual mice, 7 days after 1 mg iv

With COCOc1cc(/C=C/C(=O)CC(SCCOCCOCCOCCOCc2cn([C@@H]3O[C@H](CO)[C@@H](O[C@@H]4O[C@H](CO)[C@H](O)[C@H](O)[C@H]4O)[C@H](O)[C@H]3O)nn2)c2cc(OCOC)cc(OCOC)c2)cc(OCOC)c1 (stereo partly shown) [GO-Y199] the “fatty acid synthetase inhibitory effect” value (fatty acid synthetase) was “significant fatty acid synthetase inhibitory effect”, the IC50 [1] was 0.96 µM and the IC50 [2] was 1.03 µM. For the same molecule, the “tumor augmentation, % of that before the administration” value (HCT116) was 95.2±20.0%, the “proportion of cells expressing NF-kB (p65)” value (NF-kB (p65)) was 69.4±12.4% and the IC50 ([3]; Table 4, 72 hours) was 0.16 µM. The “GO-Y199 vs GO-Y030 (IC50 comparison), GCIY” value ([3]; Table 5, ratio of IC50) was 1.24, the “GO-Y199 vs curcumin (IC50 comparison), GCIY” value ([3]; Table 5, ratio of IC50) was 0.03 and the IC50 [4] was 0.95 µM. The “Cre (mg/dL) Ave. ± SD” value (Safety and toxicity test; 7 days after 1 mg iv, control 0.24 ± 0.15) was 0.15 ± 0.02 mg/dL, the “T-Bil (mg/dL) Ave. ± SD” value (Safety and toxicity test; 7 days after 1 mg iv, control 0.47 ± 0.17) was 0.33 ± 0.19 mg/dL and the “AST (U/L) Ave. ± SD” value (Safety and toxicity test; 7 days after 1 mg iv, control 65.0 ± 9.1) was 62.0 ± 8.6 U/L. For the same molecule, the “hematology and blood chemistry vs control group” value (Safety and toxicity test; Tables 12 and 13) was “no significant difference”, the “body weight vs control group” value (Safety and toxicity test; after intravenous injection) was “no difference in body weight” and the “local finding in the tails” value (Safety and toxicity test; after tail vein injection) was “no local abnormal finding”. For the same molecule, the “AST (U/L)” value (Safety and toxicity test; [6]) was 63 U/L and 72 U/L and 51 U/L, the “Cre” value (Safety and toxicity test; [6]) was 0.18 mg/dL and 0.14 mg/dL and 0.13 mg/dL and the “T-Bil” value (Safety and toxicity test; [6]) was 0.2 mg/dL (2×) and 0.6 mg/dL. The overall safety (Safety and toxicity test; mouse model) was “safe”, the “relative expression level of β-catenin” value (β-catenin; 2 μM) was 2.8±0.8 and the “relative expression level of β-catenin” value (β-catenin; 5 μM) was 3.9±1.1. The IC50 ([5]; Table 4, 72 hours, read-out: IC50 DLD-1) was 0.26 µM, the “GO-Y199 vs GO-Y030 (IC50 comparison), DLD-1” value ([5]; Table 5, ratio of IC50) was 0.36 and the “GO-Y199 vs curcumin (IC50 comparison), DLD-1” value ([5]; Table 5, ratio of IC50) was 0.014. It also gave an IC50 ([5]; Table 6, read-out: IC50 (μM) DLD-1) of 0.85 µM.
